Assay results published in patent US9777020B2, “Furo-3-carboxamide derivatives and methods of use” (AbbVie Inc., priority 2014, dated 2017).

The compounds below were run against TrkA (Homo sapiens (Human), UniProt P04629) (assay: TrkA kinase HTRF enzyme inhibition assay). Conditions: TrkA pre-incubated with 200 μM ATP.
Assay type: biochemical
Summary of the method: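 TrkA (2-10 nM) pre-activated 20 min with 200 μM ATP in HEPES pH 7.4/Mg/Mn buffer, compound added for 10 min, then biotinylated LCK-analog peptide (125 nM) for 1 h at ambient temperature. HTRF phosphotyrosine detection (665/620 ratio); duplicate half-log dilutions, IC50 from initial-rate inhibition via equation 1.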

Sequence of TrkA (P04629 33-796): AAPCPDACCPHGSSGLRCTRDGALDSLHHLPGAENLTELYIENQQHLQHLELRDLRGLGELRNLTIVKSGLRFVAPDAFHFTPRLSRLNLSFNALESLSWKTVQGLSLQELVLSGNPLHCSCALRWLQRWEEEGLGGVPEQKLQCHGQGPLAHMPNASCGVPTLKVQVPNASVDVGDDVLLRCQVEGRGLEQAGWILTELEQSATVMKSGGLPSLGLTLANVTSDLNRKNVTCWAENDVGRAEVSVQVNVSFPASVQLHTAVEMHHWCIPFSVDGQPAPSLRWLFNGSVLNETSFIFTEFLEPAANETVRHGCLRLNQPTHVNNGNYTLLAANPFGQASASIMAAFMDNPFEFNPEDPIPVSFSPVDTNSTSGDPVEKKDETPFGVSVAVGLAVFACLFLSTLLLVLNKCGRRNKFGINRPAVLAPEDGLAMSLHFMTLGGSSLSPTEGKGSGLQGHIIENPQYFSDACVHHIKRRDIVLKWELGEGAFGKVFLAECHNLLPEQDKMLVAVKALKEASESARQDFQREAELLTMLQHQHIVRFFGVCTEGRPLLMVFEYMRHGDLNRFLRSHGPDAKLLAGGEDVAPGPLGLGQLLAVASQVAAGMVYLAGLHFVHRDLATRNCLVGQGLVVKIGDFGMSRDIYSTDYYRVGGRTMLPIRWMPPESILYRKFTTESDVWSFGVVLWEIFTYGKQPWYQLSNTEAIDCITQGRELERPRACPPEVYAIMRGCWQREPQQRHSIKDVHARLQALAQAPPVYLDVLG

Q: With `Cn1cc2cc(NC(=O)c3coc4c3C(=O)CNC4)ccc2n1` [Example 160, N-(2-methyl-2H-indazol-5-yl)-4-oxo-4,5,6,7-tetrahydrofuro[2,3-c]pyridine-3-carboxamide] as the compound, how does the IC50 read?
A: 258 nM

Q: `Cn1cc2cc(NC(=O)c3coc4c3C(=O)CN(S(C)(=O)=O)C4)ccc2n1` [Example 161, N-(2-methyl-2H-indazol-5-yl)-6-(methylsulfonyl)-4-oxo-4,5,6,7-tetrahydrofuro[2,3-c]pyridine-3-carboxamide] was tested. Which IC50 did it give?
A: 872 nM

Q: For `Cn1cc2cc(NC(=O)c3coc4c3C(=O)CC(C)(C(N)=O)C4)ccc2n1` (stereo not drawn) [Example 162, 6-methyl-N^3-(2-methyl-2H-indazol-5-yl)-4-oxo-4,5,6,7-tetrahydro-1-benzofuran-3,6-dicarboxamide], which IC50 is on record?
A: 58 nM

Q: With `COC(=O)C1(C)CC(=O)c2c(C(=O)Nc3ccc4nn(C)cc4c3)coc2C1` (stereo not drawn) [Example 163, methyl 6-methyl-3-[(2-methyl-2H-indazol-5-yl)carbamoyl]-4-oxo-4,5,6,7-tetrahydro-1-benzofuran-6-carboxylate] as the compound, how does the IC50 read?
A: 156 nM

Q: How did the IC50 turn out when `Cn1cc2cc(NC(=O)c3coc4c3C(=O)CC(C)(CO)C4)ccc2n1` (stereo not drawn) [Example 164, 6-(hydroxymethyl)-6-methyl-N-(2-methyl-2H-indazol-5-yl)-4-oxo-4,5,6,7-tetrahydro-1-benzofuran-3-carboxamide] was run?
A: 21.9 nM

Q: With `COc1cc(N2CCN(C(=O)OC(C)(C)C)CC2)ccc1NC(=O)c1coc2c1C(=O)CC(C)(CO)C2` (stereo not drawn) [Example 165, tert-butyl 4-[4-({[6-(hydroxymethyl)-6-methyl-4-oxo-4,5,6,7-tetrahydro-1-benzofuran-3-yl]carbonyl}amino)-3-methoxyphenyl]piperazine-1-carboxylate] as the compound, how does the IC50 read?
A: 13.3 nM

Q: How did the IC50 turn out when `COCC1(C)CC(=O)c2c(C(=O)Nc3ccc(N4CCNCC4)cc3OC)coc2C1` (stereo not drawn) [Example 166, 6-(methoxymethyl)-N-[2-methoxy-4-(piperazin-1-yl)phenyl]-6-methyl-4-oxo-4,5,6,7-tetrahydro-1-benzofuran-3-carboxamide] was run?
A: 104 nM

Q: For `Cn1cc2cc(NC(=O)c3coc4c3C(=O)C(C)(CO)CC4)ccc2n1` (stereo not drawn) [Example 167, 5-(hydroxymethyl)-5-methyl-N-(2-methyl-2H-indazol-5-yl)-4-oxo-4,5,6,7-tetrahydro-1-benzofuran-3-carboxamide], which IC50 is on record?
A: 35.3 nM

Q: Which IC50 does the source give for `COc1cc(N2CCN(C(C)=O)CC2)ccc1NC(=O)c1coc2c1C(=O)C(C)(CN)CC2` (stereo not drawn) [Example 169, N-[4-(4-acetylpiperazin-1-yl)-2-methoxyphenyl]-5-(aminomethyl)-5-methyl-4-oxo-4,5,6,7-tetrahydro-1-benzofuran-3-carboxamide] here?
A: 59.6 nM

Q: Which IC50 does the source give for `COc1cc(N2CCN(C(C)=O)CC2)ccc1NC(=O)c1coc2c1C(=O)C1(CCNCC1)OC2` [Example 170, N-[4-(4-acetylpiperazin-1-yl)-2-methoxyphenyl]-4-oxo-4,7-dihydrospiro[furo[2,3-c]pyran-5,4′-piperidine]-3-carboxamide] here?
A: 56.5 nM

Q: For `COc1nc(N2CCN(C(C)=O)CC2)ccc1NC(=O)c1coc2c1C(=O)C(C)(C)OC2` [Example 171, N-[6-(4-acetylpiperazin-1-yl)-2-methoxypyridin-3-yl]-5,5-dimethyl-4-oxo-4,7-dihydro-5H-furo[2,3-c]pyran-3-carboxamide], which IC50 is on record?
A: 2.9 nM

Q: With `COc1cc(N2CCN(C(C)=O)CC2)ccc1NC(=O)c1coc2c1C(=O)C1(COC1)OC2` [Example 172, N-[4-(4-acetylpiperazin-1-yl)-2-methoxyphenyl]-4-oxo-4,7-dihydrospiro[furo[2,3-c]pyran-5,3′-oxetane]-3-carboxamide] as the compound, how does the IC50 read?
A: 60 nM

Q: How did the IC50 turn out when `CCOc1nc(N2CCN(C(C)=O)CC2)ccc1NC(=O)c1coc2c1C(=O)N(C)C(C)(C)C2` [Example 173, N-[6-(4-acetylpiperazin-1-yl)-2-ethoxypyridin-3-yl]-5,6,6-trimethyl-4-oxo-4,5,6,7-tetrahydrofuro[3,2-c]pyridine-3-carboxamide] was run?
A: 3.5 nM

Q: `CCOc1nc(N2CCN(C(C)=O)CC2)ccc1NC(=O)c1coc2c1C(=O)N(CCO)C(C)(C)C2` [Example 174, N-[6-(4-acetylpiperazin-1-yl)-2-ethoxypyridin-3-yl]-5-(2-hydroxyethyl)-6,6-dimethyl-4-oxo-4,5,6,7-tetrahydrofuro[3,2-c]pyridine-3-carboxamide] was tested. Which IC50 did it give?
A: 5.2 nM

Q: `CCOc1nc(N2CCN(C(C)=O)CC2)ccc1NC(=O)c1coc2c1C(=O)N(CCOC)C(C)(C)C2` [Example 175, N-[6-(4-acetylpiperazin-1-yl)-2-ethoxypyridin-3-yl]-5-(2-methoxyethyl)-6,6-dimethyl-4-oxo-4,5,6,7-tetrahydrofuro[3,2-c]pyridine-3-carboxamide] was tested. Which IC50 did it give?
A: 4.7 nM

Q: `CCOc1nc(N2CCN(C(C)=O)CC2)ccc1NC(=O)c1coc2c1C(=O)N(CCOCCO)C(C)(C)C2` [Example 176, N-[6-(4-acetylpiperazin-1-yl)-2-ethoxypyridin-3-yl]-5-[2-(2-hydroxyethoxyl)ethyl]-6,6-dimethyl-4-oxo-4,5,6,7-tetrahydrofuro[3,2-c]pyridine-3-carboxamide] was tested. Which IC50 did it give?
A: 2.1 nM

Q: How did the IC50 turn out when `CC(=O)N1CCN(c2ccc(NC(=O)c3coc4c3C(=O)NC(C)(C)C4)c(OCC(F)(F)F)n2)CC1` [Example 178, N-[6-(4-acetylpiperazin-1-yl)-2-(2,2,2-trifluoroethoxyl)pyridin-3-yl]-6,6-dimethyl-4-oxo-4,5,6,7-tetrahydrofuro[3,2-c]pyridine-3-carboxamide] was run?
A: 5.2 nM

Q: With `CC(=O)N1CCN(c2ccc(NC(=O)c3coc4c3C(=O)NC(C)(C)C4)c(OC3COC3)n2)CC1` [Example 179, N-[6-(4-acetylpiperazin-1-yl)-2-(oxetan-3-yloxy)pyridin-3-yl]-6,6-dimethyl-4-oxo-4,5,6,7-tetrahydrofuro[3,2-c]pyridine-3-carboxamide] as the compound, how does the IC50 read?
A: 4.9 nM

Q: Which IC50 does the source give for `CC(=O)N1CCN(c2ccc(NC(=O)c3coc4c3C(=O)NC(C)(C)C4)c(OC3CCOCC3)n2)CC1` [Example 180, N-[6-(4-acetylpiperazin-1-yl)-2-(tetrahydro-2H-pyran-4-yloxy)pyridin-3-yl]-6,6-dimethyl-4-oxo-4,5,6,7-tetrahydrofuro[3,2-c]pyridine-3-carboxamide] here?
A: 11 nM

Q: `CC(=O)N1CCN(c2ccc(NC(=O)c3coc4c3C(=O)NC(C)(C)C4)c(O[C@H]3CCOC3)n2)CC1` [Example 181, N-{6-(4-acetylpiperazin-1-yl)-2-[(3S)-tetrahydrofuran-3-yloxy]pyridin-3-yl}-6,6-dimethyl-4-oxo-4,5,6,7-tetrahydrofuro[3,2-c]pyridine-3-carboxamide] was tested. Which IC50 did it give?
A: 10.2 nM

Q: `COCCOc1nc(N2CCN(C=O)CC2)ccc1NC(=O)c1coc2c1C(=O)NC(C)(C)C2` [Example 182, N-[6-(4-formylpiperazin-1-yl)-2-(2-methoxyethoxyl)pyridin-3-yl]-6,6-dimethyl-4-oxo-4,5,6,7-tetrahydrofuro[3,2-c]pyridine-3-carboxamide] was tested. Which IC50 did it give?
A: 17.8 nM

Q: `CC(=O)N1CCN(c2ccc(NC(=O)c3coc4c3C(=O)NC(C)(C)C4)c(OC3C[S+]([O-])C3)n2)CC1` (stereo not drawn) [Example 183, N-{6-(4-acetylpiperazin-1-yl)-2-[(1-oxidothietan-3-yl)oxy]pyridin-3-yl}-6,6-dimethyl-4-oxo-4,5,6,7-tetrahydrofuro[3,2-c]pyridine-3-carboxamide] was tested. Which IC50 did it give?
A: 4.8 nM

Q: How did the IC50 turn out when `CCOc1nc(C2CCN(C(C)=O)CC2)ccc1NC(=O)c1coc2c1C(=O)NC(C)(C)C2` [Example 184, N-[6-(1-acetylpiperidin-4-yl)-2-ethoxypyridin-3-yl]-6,6-dimethyl-4-oxo-4,5,6,7-tetrahydrofuro[3,2-c]pyridine-3-carboxamide] was run?
A: 3.5 nM

Q: For `CCOc1nc(N2CCN(C(C)=O)CC2)ccc1NC(=O)c1coc2c1C(=O)C(c1cc(F)ccc1F)CC2` (stereo not drawn) [Example 185, N-[6-(4-acetylpiperazin-1-yl)-2-ethoxypyridin-3-yl]-5-(2,5-difluorophenyl)-4-oxo-4,5,6,7-tetrahydro-1-benzofuran-3-carboxamide], which IC50 is on record?
A: 6.6 nM
